Reference: patent US20220133679A1, “EFFLUX INHIBITOR COMPOSITIONS AND METHODS OF TREATMENT USING THE SAME” (Izumi Technology, LLC, priority 2012, published 2022)
Several values for one entry are separate records, joined by “and”; a condition that tells them apart may be missing. Equal entries are not always repeated. Where two headings read alike, the source gives them in different places. Blank lines part the entries; values can stand above or below the molecule they belong to.

How the values were obtained:
[1] = Therapeutic agent brain penetration studies (brain concentration); type: in vivo, wildtype FVB mice; details: for concentration at 1 h: female; for concentration at 1 h / Brain concentration of loperamide, individual animals / Brain concentration of loperamide, mean: 1 h
Procedure: The drug was administered within 1 h of preparation.
Animals received food and water ad libitum.
(§1) Samples were pre-treated as follows. […] 1000 μl of diethyl ether was added.

in vivo = details: for concentration at 60 min / concentration at 5 min / concentration at 30 min / AUC(0-t): female, FVB (wildtype), mouse, in vivo; for AUC(0-t): iv
Procedure: The following elacridar nanoparticle suspension was used in these experiments: 5% elacridar w/w plus 1% w/w TPGS, where 2 ml of NP formulation was diluted with 8 ml of 20% TPGS to give a final elacridar concentration of 10 mg/ml.
The drug was mixed, sonicated and administered within 1 h. The dose used was 50 mg/kg (10 μl/g).
The drug was mixed by vortex and administered within 1.5 h. The dose used was 33 mg/kg (10 μl/g).
The drug was administered within 1 h of preparation. The dose used was 5 mg/kg (5 μl/g).
Non-transgenic (wildtype) FVB mice, females, aged 8 to 10 weeks were used. Animals received food and water ad libitum. Mice in the treatment group (n=5) received elacridar NP formulation orally by gavage in the morning (9-10 am). Mice in the control group (n=5) received no elacridar. All mice (treatment and control group) received the therapeutic agent by i.v. injection in the tail vein in the afternoon (3-4 pm). Blood samples (50 μl) were drawn by bleeding from the tip of the tail at 5 min and 30 min after drug administration. At 1 h after API administration the animals were anesthetized using isoflurane and blood was drawn by cardiac puncture. Next, the animal was killed by cervical dislocation and the brains were harvested. Blood was kept on ice until centrifugation (5 min at 5000 g) within 2 h. Brains were kept on ice for weighing and stored at −20° C. until homogenization. Brains were homogenized in 3 ml of 1% w/v of bovine serum albumin in water.
The mice received elacridar at the standard dose of 100 mg/kg. […] The i.v. administration route was selected for the therapeutic agent in order to achieve the most similar plasma exposure of the therapeutic agent between animals receiving therapeutic agent alone or therapeutic agent with elacridar.
Samples were pre-treated as follows. Plasma (5 to 100 μl) was made up to 100 μl with blank human plasma or brain homogenate (100 μl) and pipetted into a 2 ml eppendorf vial. 50 μl of the internal standard (IS) solution (1000 nM of the deuterated analyte) in acetonitrile:water (30:70; v/v) was added. 1000 μl of diethyl ether was added. Tubes were vigorously mixed for at least 5 min then centrifuged (5 min at 5000 g) before being placed in a bath of ethanol with dry-ice in order to freeze the aqueous bottom layer. The organic supernatant was decanted into a clean 1.5 ml Brand vial and evaporated under vacuum in a Speed-Vac (Savant).
For HPLC-MS/MS analyses, the HPLC systems consisted of an Ultimate DGP-3600A pump with a SRD-3600 Solvent Rack and a model WPS-3000TSL autosampler (Dionex, Sunnyvale, Calif., USA). The HPLC column (100×2.1 mm) was packed with 3 um C18 Extend material. The column effluent was guided to an electrospray ionization (ESI) source of an AP13000 mass spectrometer (ABSciex). The mobile phase composition was: Mobile phase A was 0.1% formic acid in water; and Mobile phase B was Methanol (LC-MS quality, Merck).
Pharmacokinetic analyses were performed using the Microsoft Excel add-in program PKsolver (see e.g., Ward K W et al., J Pharmacol Exp Ther 2004; 310: 703-9, which is incorporated herein in its entirety). Calculations for oral administrations were done by the non-compartmental analyses—extravascular model, whereas we used the non-compartmental analysis—bolus model for i.v. injections. The maximum plasma levels (Cmax) were calculated by comparing the means of the plasma levels at each time point. The Tmax is considered the time point at which the Cmax was reached. The half-life (T½) was calculated from the final log-linear part of the plasma concentration-time curves. The area-under-the-curve for the plasma concentration (plasma AUC) was calculated using the linear trapezoidal rule. Both the AUC from time=0 to the last sampling point (48 h) as well as the AUC extrapolated to infinity was calculated. The oral bioavailability was calculated based on the AUC(0-inf) values. Student t-test was used to compare the means of groups where applicable.

[2] = parameters: species or system female Sprague-Dawley rats; details: rat, in vivo, iv, 5 mg/kg
Procedure: Studies were conducted in female Sprague-Dawley rats. […] The selected 100 mg/kg dose is well above the level where nonlinear pharmacokinetics have been documented. Ten animals were used at weekly intervals between each dosing to allow washout of the drug from the previous dosing.
Elacridar suspension formulation was prepared by weighing 100.03 mg of elacridar, which was first suspended in 5 ml of water, followed by 5 ml of vehicle solution (2.5% w/v of hydroxypropyl methyl cellulose (HPMC) and 2% v/v of Tween 80). This suspension was stirred for about 2.5 hours prior to dosing. The final concentration was 10 mg/ml. This suspension was given at 10 μl per gram body weight to achieve a dose level of 100 mg/kg
Elacridar nanoparticle (NP) suspensions were used as received, except for a final 5-fold dilution step to obtain a NP suspension of 10 mg/ml of elacridar.
There were three study groups: 1) Elacridar Suspension (n=4); 2) Elacridar TPGS nanoparticles (n=5); and 3) Elacridar Poloxamer nanoparticles (n=5). All animals received elacridar orally by gavage under light isoflurane anesthesia. The animals were fasted for a period of 3 h before drug administration. Food pellets were returned to the cages after the 4 h sampling point. Blood samples from the tail vein at: 15, 30 min, 1, 2, 4, 7, 24, 30 and 48 hours. Samples were kept on ice and centrifuged within 2 h to separate plasma. Plasma was stored at −20° C.
Formulation for i.v. administration was prepared by weighing 61.12 mg of elacridar and dissolving this in 2.056 ml of DMSO. The final concentration was 30 mg/ml. Animals (n=4) received […] per gram body weight (5 mg/kg). Blood samples were taken from the tail vein at: 5, 15, 30 min, 1, 2, 4, 7, 24, 30 and 48 h. Samples were kept on ice and centrifuged within 2 h to separate plasma. Plasma was stored at −20° C.
as §1

[3] = Docetaxel plasma concentration, mean
[4] = loperamide 5 mg/kg i.v. with elacridar TPGS NP 100 mg/kg p.o. about 6 h before
[5] = imatinib with elacridar, 30 min
[6] = imatinib with elacridar, 60 min

complications of dosing ([1]; mouse, in vivo, iv): without complications
concentration at 60 min (in vivo; Docetaxel plasma concentration, individual animals): 3030 ng/mL
concentration at 5 min (in vivo; [3]): 206000 ng/mL
concentration at 30 min (in vivo; [3]): 12200 ng/mL
concentration at 60 min (in vivo; [3]): 2570 ng/mL
AUC(0-t) (in vivo; 33 mg/kg, Docetaxel plasma AUC(0-1 h), individual animals): 54100 ng·h/mL
AUC(0-t) (in vivo; 33 mg/kg, Docetaxel plasma AUC(0-1 h), mean): 53300 ng·h/mL
Molecule: CC(=O)O[C@@]12CO[C@@H]1C[C@H](O)[C@@]1(C)C(=O)[C@H](O)C3=C(C)[C@@H](OC(=O)[C@H](O)[C@@H](NC(=O)OC(C)(C)C)c4ccccc4)C[C@@](O)([C@@H](OC(=O)c4ccccc4)[C@H]21)C3(C)C [docetaxel]

Molecule: CN(C)C(=O)C(CCN1CCC(O)(c2ccc(Cl)cc2)CC1)(c1ccccc1)c1ccccc1 [loperamide]
complications of dosing ([1]; FVB mice, i.v., control group (no elacridar)): went smoothly
complications of dosing ([1]; FVB mice, loperamide 5 mg/kg i.v. and elacridar NP 100 mg/kg p.o.): one animal died within 5 minutes after drug administration, whereas another animal had to be sacrificed at 45 min
concentration at 1 h ([1]; FVB (wildtype), mouse, in vivo, loperamide 5 mg/kg i.v. with elacridar TPGS NP 100 mg/kg p.o. about 6 h before, read-out: Brain concentration of loperamide, individual animals): 2910 ng/g
concentration at 1 h ([1]; FVB, mouse, in vivo, 5 mg/kg, loperamide 5 mg/kg i.v. alone, read-out: Brain concentration of loperamide, mean): 73 ng/g
concentration at 1 h ([1]; FVB, mouse, in vivo, loperamide 5 mg/kg i.v. with elacridar TPGS NP 100 mg/kg p.o. about 6 h before, read-out: Brain concentration of loperamide, mean): 3700 ng/g
Brain concentration of loperamide, individual animals ([1]; loperamide 5 mg/kg i.v. alone): 83.8 ng/g and 79.4 ng/g and 84.1 ng/g and 78.1 ng/g and 41.6 ng/g
Brain concentration of loperamide, mean ([1]; loperamide 5 mg/kg i.v. alone): 73.4 ng/g
Brain concentration of loperamide, individual animals [1, 4]: 4376.5 ng/g and 4288.7 ng/g and 3981.2 ng/g and 2933.5 ng/g
Brain concentration of loperamide, mean [1, 4]: 3697.8 ng/g
increase of brain penetration by concomitant elacridar NP ([1]; with vs without elacridar TPGS NP 100 mg/kg p.o., brain at 1 h): 50 fold
change of plasma AUC by concomitant elacridar dosing (in vivo; AUC 5 min to 1 h, with vs without elacridar NP): remained unchanged
concentration at 5 min (in vivo; 5 mg/kg, Loperamide plasma concentration, mean, loperamide alone, 5 min): 1030 ng/mL
concentration at 30 min (in vivo; 5 mg/kg, Loperamide plasma concentration, mean, loperamide alone, 30 min): 221 ng/mL
concentration at 60 min (in vivo; 5 mg/kg, Loperamide plasma concentration, mean, loperamide alone, 60 min): 81.4 ng/mL
concentration at 5 min (in vivo; Loperamide plasma concentration, mean, loperamide with elacridar, 5 min): 989 ng/mL
concentration at 30 min (in vivo; Loperamide plasma concentration, mean, loperamide with elacridar, 30 min): 184 ng/mL
concentration at 60 min (in vivo; Loperamide plasma concentration, mean, loperamide with elacridar, 60 min): 140 ng/mL
AUC(0-t) (in vivo; 5 mg/kg, Loperamide plasma AUC(0-1 h), individual animals, loperamide alone): 740 ng·h/mL
AUC(0-t) (in vivo; 5 mg/kg, Loperamide plasma AUC(0-1 h), individual animals, loperamide with elacridar): 704 ng·h/mL
AUC(0-t) (in vivo; 5 mg/kg, Loperamide plasma AUC(0-1 h), mean, loperamide alone): 747 ng·h/mL
AUC(0-t) (in vivo; 5 mg/kg, Loperamide plasma AUC(0-1 h), mean, loperamide with elacridar): 744 ng·h/mL
Loperamide plasma AUC(0-1 h), individual animals (in vivo; loperamide alone): 43377.5 ng·min/mL and 43440.0 ng·min/mL and 47625.0 ng·min/mL and 45132.5 ng·min/mL
Loperamide plasma concentration, individual animals (in vivo; loperamide alone, 5 min): 2500.0 ng/mL and 430.0 ng/mL and 599.0 ng/mL and 679.0 ng/mL and 925.0 ng/mL
Loperamide plasma concentration, individual animals (in vivo; loperamide alone, 30 min): 191.0 ng/mL and 166.0 ng/mL and 168.0 ng/mL and 354.0 ng/mL and 226.0 ng/mL
Loperamide plasma concentration, individual animals (in vivo; loperamide alone, 60 min): 111.0 ng/mL and 87.5 ng/mL and 88.0 ng/mL and 26.0 ng/mL and 94.5 ng/mL
Loperamide plasma AUC(0-1 h), individual animals (in vivo; loperamide with elacridar): 44405.0 ng·min/mL and 46040.0 ng·min/mL and 45978.8 ng·min/mL
Loperamide plasma concentration, individual animals (in vivo; loperamide with elacridar, 5 min): 1220.0 ng/mL and 306.0 ng/mL and 376.0 ng/mL and 511.0 ng/mL and 2530.0 ng/mL
Loperamide plasma concentration, individual animals (in vivo; loperamide with elacridar, 30 min): 115.0 ng/mL and 178.0 ng/mL and 163.0 ng/mL and 282.0 ng/mL
Loperamide plasma concentration, individual animals (in vivo; loperamide with elacridar, 60 min): 106.0 ng/mL and 134.0 ng/mL and 270.5 ng/mL and 48.3 ng/mL

AUC(0-48 h) [2]: 260.3 µg·min/mL
AUC(0-inf) [2]: 272.2 µg·min/mL
Cmax [2]: 826.5 ng/mL
F [2]: 100.0%
Tmax [2]: 0 h
T½ [2]: 6.9 h
Molecule: DMSO

complications of dosing ([1]; mouse, in vivo, iv): without complications
Imatinib plasma concentration, mean (in vivo; imatinib alone, 5 min): 49580.0 ng/mL
Imatinib plasma concentration, mean (in vivo; imatinib alone, 30 min): 10116.0 ng/mL
Imatinib plasma concentration, mean (in vivo; imatinib alone, 60 min): 2068.0 ng/mL
Imatinib plasma concentration, mean (in vivo; imatinib with elacridar, 5 min): 51320.0 ng/mL
Imatinib plasma concentration, mean (in vivo; [5]): 10414.0 ng/mL
Imatinib plasma concentration, mean (in vivo; [6]): 4372.0 ng/mL
Molecule: imatinib
Imatinib plasma concentration, individual animals (in vivo; imatinib alone, 5 min): 49100 ng/mL and 50400 ng/mL and 38200 ng/mL and 61300 ng/mL and 48900 ng/mL
Imatinib plasma concentration, individual animals (in vivo; imatinib alone, 30 min): 6590 ng/mL and 11500 ng/mL and 7690 ng/mL and 13200 ng/mL and 11600 ng/mL
Imatinib plasma concentration, individual animals (in vivo; imatinib alone, 60 min): 1920 ng/mL and 1260 ng/mL and 2350 ng/mL and 2050 ng/mL and 2760 ng/mL
Imatinib plasma concentration, individual animals (in vivo; imatinib with elacridar, 5 min): 90800 ng/mL and 43500 ng/mL and 50000 ng/mL and 34400 ng/mL and 37900 ng/mL
Imatinib plasma concentration, individual animals (in vivo; [5]): 11000 ng/mL and 7860 ng/mL and 11700 ng/mL and 8910 ng/mL and 12600 ng/mL
Imatinib plasma concentration, individual animals (in vivo; [6]): 3630 ng/mL and 5580 ng/mL and 3840 ng/mL and 4710 ng/mL and 4100 ng/mL
